In patent publication US20160030367A1, “Methods and Compositions for Preventing Metastasis and for Improving the Survival Time” (INSERM (INSTITUT NATIONAL DE LA SANTÉ ET DE LA RECHERCHE …, priority 2013, published 2016):
Starred links: 1 amine or outer side, 2 acyl side, 3 side chain; linkers in the order of their positions; H or OH if unused. Positions of bridges follow the written chain, without caps; N, C: chain ends. Non-standard residues stand in square brackets, D forms with d. Residues, ends and D or L forms follow the SMILES beside them. Chains are numbered I, II in the order given. Actinocin(9to1) = Cc1c2oc3c(C)ccc(C(=O)[*:1])c3nc-2c(C(=O)[*:2])c(N)c1=O; NMeV = CN[C@H](C(=O)O)C(C)C; Sar = CNCC(=O)O

What was measured:
1205Lu melanoma cells [1] = assay: Invasion assay in Matrigel-coated Boyden chambers; format: cell-based, human; conditions: for cell invasion, dose dependence: indicated concentrations
Procedure: (§1) Boyden chambers (8.0-μm pores, Transwell, Corning, Inc.) were coated with 1 mg/ml Matrigel® (BD Biosciences) and were placed into 24-well chambers containing medium supplemented with 10% FCS. The cells were resuspended in FCS-starved medium, loaded into the top chamber. […] Results represent the average of triplicate samples from three independent experiments.

A375 melanoma cells [2] = assay: Invasion assay in Matrigel-coated Boyden chambers; format: cell-based; conditions: 24 h; for cell invasion, dose dependence: indicated concentrations
Procedure: as §1

p53 = assay: p53-dependent luciferase reporter assay (PG13-Luc) in melanoma cells; format: cell-based; conditions: positive control
Procedure: Melanoma cells were seeded in 24-well dishes, and transient transfections were performed the following day using 2 μl Lipofectamine (Gibco-BRL, Eragny, France) and 0.3 mg of PG13-Luc, a p53-dependent firefly luciferase reporter gene in a 200-ml final volume. pCMVβGal plasmid was cotransfected to control the variability of transfection efficiency in the reporter assays. […] At 24 hours after stimulation, cells were harvested in 50 μl of lysis buffer and soluble extracts assayed for luciferase and β-galactosidase activities. All transfections were repeated several times using different plasmid preparations. Luciferase assays were carried out exactly as described (17).

WM9 melanoma cells = assay: Three-dimensional spheroid invasion into collagen; format: cell-based
Procedure: Melanoma spheroids were prepared using the liquid overlay method. Briefly, 500 μL of melanoma cells (20000/ml) were added to a 24-well plate coated with 1.5% agar (Difco, Sparks, Md.). Plates were left to incubate for 72 hours, by which time cells had organized into three-dimensional spheroids. Spheroids were then harvested using a P1000 pipette. The medium was removed and the spheroids were implanted into a gel of bovine collagen I containing MEM (Invitrogen). Normal melanoma medium was overlaid on top of the solidified collagen. After different time, pictures of the invading spheroids were taken using a Zeiss microscope.

[3] = system: Fibronectin, N-Cadherin, Vimentin, Sparc, Slug and Snail in 1205Lu melanoma cells; assay: Western blot of EMT markers; format: cell-based, human
Procedure: (§2) Protein were extracted in buffer containing TRIS-HCl pH7.5 50 mM, NaCl 15 mM, Triton X-100 1% and protease and phosphatase inhibitor 1X. Briefly, cell lysates (30 μg) were separated by SDS-PAGE, transferred onto a PVDF membrane (Millipore, Molsheim, France) and then exposed to the appropriate antibodies. Proteins were visualized with the ECL system from Amersham (Arlington, Heights, Ill., USA). The western blots shown are representative of at least 3 independent experiments.

[4] = system: 1205Lu melanoma cells expressing luciferase; assay: Lung metastasis model, bioluminescence, nude mice; format: in vivo
Procedure: 1205Lu cells stably transfected with a vector encoding luciferase cells come from the team of Dr. Tartare-Deckert. A total of 1×10^6/150 μl PBS 1205Lu-Luc cells were injected via the tail vein of nude mice (Harlan Laboratories). […] To perform pulmonary extravasation analysis, 1.5×10^6 1205Lu cells were labelled for 1 h with CellTracker™ Green (Invitrogen) and injected via the tail vein of nude mice.

total MMP activity = assay: Matrix metalloproteinase (MMP) activity measurement, fluorogenic substrate, culture media of 1205Lu cells; format: cell-based, human; conditions: 10 mM, 24 h
Procedure: The culture media from stimulated cells were harvested and incubated in a 96-well plate with 0.2 mM of NH2-RA-Dpa-LGLP-AMC as a substrate for various times at 37° C. MMP activity was measured in quadruplicate by quantifying the emission at 460 nm (excitation at 390 nm) in the presence or absence of 10 μM CP471474. The enzyme activities were expressed in arbitrary units per mg of protein.

A375 melanoma cells [5] = assay: Migration assay in Boyden chambers; format: cell-based; conditions: after 24 hours
From the text: as §1, with “Inc.)” for “Inc.) were coated with 1 mg/ml Matrigel® (BD Biosciences) and”

A375 melanoma cells [6] = assay: Wound healing assay; format: cell-based
melanomas cells = conditions: long term treatment of 96 hours; cited from earlier work
1205Lu melanoma cells [7] = assay: Migration assay in Boyden chambers; format: cell-based, human; conditions: after 24 hours
From the text: as §1, with “Inc.)” for “Inc.) were coated with 1 mg/ml Matrigel® (BD Biosciences) and”

1205Lu melanoma cells [8] = assay: Wound healing assay; format: cell-based, human
1205Lu melanoma cells [9] = assay: Pulmonary extravasation model in nude mice; conditions: cells treated 24 h with 10 mM before tail vein injection; lungs after 24 h
[10] = system: Slug and N-cadherin in Mewo cells; assay: Western blot in Mewo cells infected with Adp53; format: cell-based; conditions: re-expression of WT p53 by adenovirus infection
Procedure: as §2

AMPK = assay: Western blot in 1205Lu cells infected with Ad AMPK-DN or Ad control; format: cell-based, human
Procedure: Adenoviruses encoding a dominant negative form (Ad AMPK-DN) of subunits α1 and α2 of AMPK were a generous gift of Dr. Foufelle (INSERM, UMR-S 872, Paris, France). An adenovirus of which the expression cassette contains the major late promoter with no exogenous gene was used as control (Ad control). Adenoviruses were propagated in human embryonic kidney 293 cells and stored at −80° C.
as §2

[11] = system: melanoma cells freshly isolated from patients; assay: Invasion assay in Matrigel-coated Boyden chambers; format: cell-based, human; conditions: 10 mM, 24 h
Procedure: Different cancer cell lines were purchased from American Tissue Culture Collection (Molsheim, France). Cells were grown in RPMI 1640 (A375, WM9, SKMel28 and LNCap) or in DMEM medium (1205Lu, Mel501, Mewo and PC3) supplemented with 10% FCS and penicillin/streptomycin (100 U/ml/[…]) at 37° C. and 5% CO2. Patient melanoma cells were prepared as described (13). Briefly, biopsy was dissected and digested for 1-2 h with collagenase A (0.33 U/ml), dispase (0.85 U/ml) and Dnase I (144 U/ml) with rapid shaking at 37° C. Large debris were removed by filtration through a […] cell strainer. Viable cells were obtained by Ficoll gradient centrifugation.
Boyden chambers (8.0-μm pores, Transwell, Corning, Inc.) were coated with 1 mg/ml Matrigel® (BD Biosciences) and were placed into 24-well chambers containing medium supplemented with 10% FCS. The cells were resuspended in FCS-starved medium, loaded into the top chamber. 5 h later, cells adherent to the underside of the filters were fixed with 4% PFA and stained with 0.4% crystal violet, and five random fields at 20× magnification were counted. Results represent the average of triplicate samples from three independent experiments.

MMP-9 = assay: Type I collagen substrate zymography, 1205Lu culture media; format: cell-based, human
Procedure: (§3) The culture media from 1205Lu melanoma cells was concentrated in centrifugal filter unit and loaded on 10% SDS-polyacrylamide gels containing 1 mg/ml type I collagen (BD Biosciences). To estimated the protein concentration, 1205Lu melanoma cells were lysed in a buffer containing 1% Triton X-100, 150 mM NaCl, and 20 mM Tris, pH 7.4, supplemented with a protease inhibitor mixture (Complete EDTA-free, Roche Molecular Biochemicals) at 4° C. under agitation for 30 min. Lysates were clarified by brief spinning, and protein concentration was evaluated by bicinchoninic acid technique (BCA protein assay kit, Pierce). Following electrophoresis, proteins were renatured by incubating gels in 2.5% Triton X-100 for 2 h at 37° C. Gels were then washed three times in distilled water and incubated in substrate buffer (50 mM Tris, pH 7.4, and 1 mM CaCl2) at 37° C. for 24 h with gentle shaking Gels were stained with 0.1% Coomassie Blue R-250 (Sigma) and destained in 7% acetic acid. Enzymatic activities appear as cleared bands in a dark background.

MMP-2 = assay: as above; format: cell-based, human
Procedure: as §3

[12] = cells transfected with siRNA against p53

## NC(=O)c1ncn([C@@H]2O[C@H](CO)[C@@H](O)[C@H]2O)c1N [AICAR, 5-aminoimidazole-4-carboxamide-1-β-D-ribofuranoside]
1205Lu melanoma cells [1]; 24 h
  cell invasion, dose dependence: decreases cell invasion in dose dependent manner
A375 melanoma cells [2]
  cell invasion, dose dependence: decreases cell invasion in dose dependent manner

## Cc1c2oc3c(C)ccc(C(=O)N[C@@H]4C(=O)N[C@H](C(C)C)C(=O)N5CCC[C@H]5C(=O)N(C)CC(=O)N(C)[C@@H](C(C)C)C(=O)O[C@@H]4C)c3nc-2c(C(=O)N[C@@H]2C(=O)N[C@H](C(C)C)C(=O)N3CCC[C@H]3C(=O)N(C)CC(=O)N(C)[C@@H](C(C)C)C(=O)O[C@@H]2C)c(N)c1=O [Actinomycin D] (I: T[dV]P[Sar][NMeV] / II: T[dV]P[Sar][NMeV]; ester I:1-I:C, II:1-II:C; linker I:N-II:N via Actinocin(9to1))
p53
  increase of p53 promoter activity: comparable to metformin 10 mM

## CC(C)[C@H](NC(=O)c1ccc2ccccc2n1)C(=O)N[C@@H](CC(=O)O)C(=O)COc1c(F)cccc1F [QVD]
WM9 melanoma cells; spheroids embedded in collagen
  cell invasion into collagen: contrary to QVD alone, association of QVD with metformin block invasion

## CN(C)C(=N)N=C(N)N [metformin]
[3]; 24 h
  N-cadherin expression: decrease
  SPARC expression: inhibited in a dose dependent manner
  Slug level: decrease
  Snail level: also decrease
  fibronectin expression: decrease
  vimentin expression: not modified
[3]; 24 h, listed as Metformin
  N-cadherin expression: inhibited in a dose dependent manner
  Slug level: also decrease
  fibronectin expression: inhibited in a dose dependent manner
[3]; [12]
  Slug downregulation: prevent downregulation of Slug
[4]; 7 days after cell injection, intraperitoneal, 2 mg/mouse/day
  increase in bioluminescence intensity in lungs of vehicle-treated mice compared to metformin-treated mice: 3 fold
[4]; after 39 day, intraperitoneal, 2 mg/mouse/day
  bioluminescence intensity in lungs: very weak
[4]; immunofluorescent staining, vs vehicle
  Slug staining in sections of lung tumors: significant decrease in Slug staining
1205Lu melanoma cells [1]; 24 h
  cell invasion, dose dependence: decreases cell invasion in dose dependent manner
1205Lu melanoma cells [1]; Homo sapiens, 1205Lu, 10 mM, 24 h, read-out: inhibition of cell invasion
  inhibition at 10000 µM: 95%
1205Lu melanoma cells [1]; [12]
  inhibition of invasion: prevent downregulation of Slug and inhibition of invasion
1205Lu melanoma cells [1]; in presence of dominant negative forms of AMPK
  inhibition of invasion: abolished
Total MMP activity
  decrease of total MMP activities: approximately 30%
A375 melanoma cells [2]
  cell invasion, dose dependence: decreases cell invasion in dose dependent manner
A375 melanoma cells [2]; Homo sapiens, A-375, 10 mM, read-out: inhibition of cell invasion
  inhibition at 10000 µM: 90%
A375 melanoma cells [5]
  cell migration: do not inhibit migration
A375 melanoma cells [6]
  cell migration (wound healing): Results were confirmed
Melanomas cells
  cell death: induced cell death of melanomas cells
1205Lu melanoma cells [7]
  cell migration: do not inhibit migration
1205Lu melanoma cells [8]
  cell migration (wound healing): Results were confirmed
1205Lu melanoma cells [9]
  micro-metastases in the lungs (extravasation): much more micro-metastases in the lungs than 1205Lu cells treated by metformin
[10]
  decrease in Slug and N-cadherin expressions: restored
AMPK; cells infected by AdAMPK DN α1 and α2
  metformin-stimulated phosphorylation of Acetyl-CoA carboxylase (ACC): abolished
AMPK; cells infected with Ad control
  Slug and SPARC expression: inhibited
AMPK; expression of AMPK DN constructs
  Slug and SPARC expression: abrogates these inhibitory effects
WM9 melanoma cells; in presence of apoptosis inhibitor QVD
  cell invasion into collagen: block invasion
WM9 melanoma cells; spheroids embedded in collagen
  cell invasion into collagen: significantly reduced cell invasion into collagen
[11]
  cell invasion: significant inhibition of cell invasion
MMP-9; 5 mM
  MMP-9 activity: important diminution
MMP-9; 10 mM
  decrease of MMP-9 activity: 45%
MMP-2; 5 mM
  MMP-2 activity: important diminution
MMP-2; 10 mM
  decrease of MMP-2 activity: 80%

## [H]/N=C(/N)N/C(=N/[H])NCCc1ccccc1 [phenformin]
1205Lu melanoma cells [1]; 24 h
  cell invasion, dose dependence: decreases cell invasion in dose dependent manner
A375 melanoma cells [2]
  cell invasion, dose dependence: decreases cell invasion in dose dependent manner

## Oc1ccc(/C=C/c2cc(O)cc(O)c2)cc1 [resveratrol, 3,5,4′-trihydroxy-trans-stilbene]
1205Lu melanoma cells [1]; 24 h
  cell invasion, dose dependence: decreases cell invasion in dose dependent manner
A375 melanoma cells [2]
  cell invasion, dose dependence: decreases cell invasion in dose dependent manner
